Target: not listed separately
Experiment: Evaluated for cytotoxicity using P388/VMDRC.04 cells (a subline of P388 murine leukemia cells expressing human recombinant human P-glycoprotein) in the absence of 10 nM vincristine
Conditions: not given

SMILES | IC50 [µM]
CC(C)[C@@H]1OC(=O)[C@@H](C)COC(=O)C[C@@H](O)[C@H](Cc2ccccc2)N(C)C1=O | > 100
CCCCCCC[C@@H](O)[C@H](C)C(=O)OC | > 100
CCCC[C@H]1OC(=O)C[C@H](OCOC)[C@H](Cc2ccccc2)N(C)C(=O)COC(=O)[C@H]1C | > 100
CCCCCCC[C@H]1OC(=O)C[C@@H](OCOC)[C@H](Cc2ccccc2)N(C)C(=O)[C@H](C(C)C)OC(=O)[C@H]1C | 34.9

Target: ATP-dependent translocase ABCB1 (P-glycoprotein) (Homo sapiens, UniProt P08183)
Sequence (P08183 whole entry): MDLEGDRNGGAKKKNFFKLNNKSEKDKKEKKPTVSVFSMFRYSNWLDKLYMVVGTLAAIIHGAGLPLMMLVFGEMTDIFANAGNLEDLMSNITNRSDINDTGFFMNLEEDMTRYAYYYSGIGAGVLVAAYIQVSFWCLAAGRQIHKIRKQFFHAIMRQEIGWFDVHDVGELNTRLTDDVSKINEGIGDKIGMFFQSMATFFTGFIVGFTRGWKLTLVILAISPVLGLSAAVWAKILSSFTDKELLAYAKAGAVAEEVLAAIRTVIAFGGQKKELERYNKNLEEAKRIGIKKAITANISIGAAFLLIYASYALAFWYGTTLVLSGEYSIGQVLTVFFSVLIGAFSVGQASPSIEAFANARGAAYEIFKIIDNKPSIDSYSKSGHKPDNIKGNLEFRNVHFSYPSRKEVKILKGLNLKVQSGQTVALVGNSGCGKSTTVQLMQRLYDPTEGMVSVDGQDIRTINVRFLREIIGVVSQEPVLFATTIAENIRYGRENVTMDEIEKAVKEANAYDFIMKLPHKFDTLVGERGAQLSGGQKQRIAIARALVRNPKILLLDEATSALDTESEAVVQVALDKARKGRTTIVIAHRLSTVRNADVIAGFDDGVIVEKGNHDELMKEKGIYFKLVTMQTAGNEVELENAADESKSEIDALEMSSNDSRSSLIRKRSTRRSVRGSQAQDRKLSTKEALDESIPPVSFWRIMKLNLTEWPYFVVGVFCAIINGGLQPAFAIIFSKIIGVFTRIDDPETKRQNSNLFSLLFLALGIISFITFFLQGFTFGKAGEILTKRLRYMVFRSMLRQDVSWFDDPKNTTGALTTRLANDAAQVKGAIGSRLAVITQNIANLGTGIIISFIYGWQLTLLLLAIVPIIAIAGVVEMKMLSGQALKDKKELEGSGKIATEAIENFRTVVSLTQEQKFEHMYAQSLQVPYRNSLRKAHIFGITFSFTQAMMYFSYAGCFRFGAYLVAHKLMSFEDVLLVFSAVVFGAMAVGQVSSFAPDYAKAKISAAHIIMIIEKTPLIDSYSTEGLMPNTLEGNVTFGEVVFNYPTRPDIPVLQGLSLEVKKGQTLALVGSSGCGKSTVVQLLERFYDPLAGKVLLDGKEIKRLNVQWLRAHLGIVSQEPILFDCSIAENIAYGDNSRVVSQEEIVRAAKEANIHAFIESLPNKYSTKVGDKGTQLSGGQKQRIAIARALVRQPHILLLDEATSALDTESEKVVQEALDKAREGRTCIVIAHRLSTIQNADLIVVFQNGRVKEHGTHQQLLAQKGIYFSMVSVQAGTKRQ
Experiment: (§1) Ratio of IC50 of cytotoxicity to the IC50 of MDR- reversal for P388/VMDRC.04 cells
Format: functional, cell-based
Conditions: mouse, P388/VMDRC.04 cells

SMILES | selectivity ratio
CCCCCCC[C@H]1OC(=O)C[C@H](O)[C@H](Cc2ccccc2)N(C)C(=O)[C@H](C(C)C)OC(=O)[C@H]1C [listing 1 of 2 here] | 5.4
CCCC[C@H]1OC(=O)C[C@H](O)[C@H](Cc2ccccc2)N(C)C(=O)COC(=O)[C@H]1C | > 4.4
CCCCCCC[C@H]1OC(=O)C[C@@H](O)[C@H](Cc2ccccc2)N(C)C(=O)COC(=O)[C@H]1C | 3.8
CCCCCCC[C@H]1OC(=O)C[C@H](O)[C@H](Cc2ccccc2)N(C)C(=O)[C@H](C(C)C)OC(=O)[C@H]1C [listing 2 of 2 here] | 7.4
COCO[C@@H]1CC(=O)O[C@H](C)[C@H](C)C(=O)O[C@@H](C(C)C)C(=O)N(C)[C@H]1Cc1ccccc1 | > 10
CCCCCCC[C@H]1OC(=O)C[C@H](O)[C@H](Cc2ccccc2)N(C)C(=O)C(C)(C)OC(=O)[C@H]1C | 6.6
CCCCCCC[C@@H]1CC(=O)O[C@@H](C(C)C)C(=O)N(C)[C@@H](Cc2ccccc2)[C@H](O)CC(=O)O1 | 3.8
CC(C)[C@@H]1OC(=O)[C@@H](C)[C@@H](C)OC(=O)C[C@@H](O)[C@H](Cc2ccccc2)N(C)C1=O | > 9
COC(=O)C[C@@H](O)[C@H](Cc1ccccc1)N(C)C(=O)OCc1ccccc1 | 5.2
COCO[C@H]1CC(=O)O[C@H](C)[C@H](C)C(=O)OCC(=O)N(C)[C@H]1Cc1ccccc1 | > 2.3
CC(C)[C@@H]1OC(=O)[C@@H](C)COC(=O)C[C@@H](O)[C@H](Cc2ccccc2)N(C)C1=O | > 7.5
CCCCCCC[C@@H]1CC(=O)O[C@@H](C(C)C)C(=O)N(C)[C@@H](Cc2ccccc2)[C@H](OCOC)CC(=O)O1 | 5.7
CCCC[C@H]1OC(=O)C[C@H](OCOC)[C@H](Cc2ccccc2)N(C)C(=O)COC(=O)[C@H]1C | > 8.5
COCO[C@H](CC(=O)OC)[C@H](Cc1ccccc1)N(C)C(=O)OCc1ccccc1 | 5.7
CCCCCCC[C@H]1OC(=O)C[C@@H](OCOC)[C@H](Cc2ccccc2)N(C)C(=O)COC(=O)[C@H]1C | 6.5
CCCCCCC[C@H]1OC(=O)C[C@@H](OCOC)[C@H](Cc2ccccc2)N(C)C(=O)[C@H](C)OC(=O)[C@H]1C | 3.2
CCCCCCC[C@H]1OC(=O)C[C@H](OCOC)[C@H](Cc2ccccc2)N(C)C(=O)C(C)(C)OC(=O)[C@H]1C | 3.5
COCO[C@@H]1CC(=O)OC[C@H](C)C(=O)O[C@@H](C(C)C)C(=O)N(C)[C@H]1Cc1ccccc1 | > 15.9
CCCCCCC[C@H]1OC(=O)CC[C@H](Cc2ccccc2)N(C)C(=O)[C@H](C(C)C)OC(=O)[C@H]1C | 5.6
CCCCCCC[C@@H](O)[C@H](C)C(=O)O[C@H](C(=O)OC)C(C)C | > 5.2
CCCCCCC[C@H]1OC(=O)C[C@@H](OCOC)[C@H](Cc2ccccc2)N(C)C(=O)[C@H](C(C)C)OC(=O)[C@H]1C | 5.7
CCCCCCC[C@H]1OC(=O)C[C@@H](O)[C@H](Cc2ccccc2)N(C)C(=O)[C@H](C)OC(=O)[C@H]1C | 4.3
CCCCCCC[C@H]1OC(=O)C[C@H](OCOC)[C@H](Cc2ccccc2)N(C)C(=O)[C@H](C(C)C)OC(=O)[C@H]1C (stereo in doubt; 14) | 7.5
CCCCCCC[C@H]1OC(=O)C[C@@H](O)[C@H](Cc2ccccc2)N(C)C(=O)[C@H](C(C)C)OC(=O)[C@H]1C [HAPALOSIN] | 3

Target: ATP-dependent translocase ABCB1 (Homo sapiens, UniProt P08183)
Sequence (P08183 whole entry): as above
Experiment: as §1
Format: functional, cell-based
Conditions: mouse

SMILES | Ratio
CCCCCCC[C@H]1OC(=O)C[C@H](OCOC)[C@H](Cc2ccccc2)N(C)C(=O)[C@H](C(C)C)OC(=O)[C@H]1C (stereo in doubt; 22) | 6.2
